Assay results reported in ChEMBL document CHEMBL1949541, “Discovery of 7-arylsulfonyl-1,2,3,4, 4a,9a-hexahydro-benzo[4,5]furo[2,3-c]pyridines: identification of a potent and selective 5-HT₆ receptor antagonist showing activity in rat social recognition test” (Bioorg Med Chem Lett, 2012).

Key:
Rattus norvegicus [1] = test: Volume of distribution in rat at 1 mg/kg, iv; format: ADME, organism-based; parameters: dose 1 mg/kg, route intravenous; settings: in vivo
Rattus norvegicus [2] = test: Half life in rat at 1 mg/kg, iv; format: ADME, organism-based; parameters: dose 1 mg/kg, route intravenous; settings: in vivo
[3] = molecular target: T1, 5-hydroxytryptamine receptor 6 (Homo sapiens, UniProt P50406); test: Displacement of [3H]LSD from human recombinant 5HT6 receptor
Rattus norvegicus [4] = test: Ratio of drug uptake in brain to plasma in rat at 5 mg/kg, po
[5] = Oral bioavailability in rat at 5 mg/kg; format: ADME, organism-based; settings: in vivo
[6] = molecular target: 5-hydroxytryptamine receptor 6 (Rattus norvegicus, UniProt P31388); test: Displacement of [3H]LSD from rat recombinant 5HT6 receptor
[7] = molecular target: T1, 5-hydroxytryptamine receptor 6; test: Antagonist activity at human 5HT6 receptor expressed in human astrocytoma cells assessed as inhibition of cAMP production; format: functional, cell-based

T1 sequence (P50406 whole entry): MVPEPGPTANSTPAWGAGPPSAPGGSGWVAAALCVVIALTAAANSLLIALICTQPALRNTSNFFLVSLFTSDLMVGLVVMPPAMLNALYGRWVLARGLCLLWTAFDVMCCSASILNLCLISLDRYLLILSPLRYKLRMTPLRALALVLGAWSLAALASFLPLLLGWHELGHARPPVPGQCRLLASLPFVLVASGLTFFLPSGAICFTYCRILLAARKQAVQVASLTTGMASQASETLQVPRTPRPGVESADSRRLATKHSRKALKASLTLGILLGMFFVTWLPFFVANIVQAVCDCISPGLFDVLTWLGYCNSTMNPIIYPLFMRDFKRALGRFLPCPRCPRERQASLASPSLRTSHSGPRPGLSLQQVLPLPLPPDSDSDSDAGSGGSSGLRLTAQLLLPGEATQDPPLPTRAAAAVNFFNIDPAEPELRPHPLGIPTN
5-hydroxytryptamine receptor 6 (Rattus norvegicus, UniProt P31388), sequence (P31388 whole entry): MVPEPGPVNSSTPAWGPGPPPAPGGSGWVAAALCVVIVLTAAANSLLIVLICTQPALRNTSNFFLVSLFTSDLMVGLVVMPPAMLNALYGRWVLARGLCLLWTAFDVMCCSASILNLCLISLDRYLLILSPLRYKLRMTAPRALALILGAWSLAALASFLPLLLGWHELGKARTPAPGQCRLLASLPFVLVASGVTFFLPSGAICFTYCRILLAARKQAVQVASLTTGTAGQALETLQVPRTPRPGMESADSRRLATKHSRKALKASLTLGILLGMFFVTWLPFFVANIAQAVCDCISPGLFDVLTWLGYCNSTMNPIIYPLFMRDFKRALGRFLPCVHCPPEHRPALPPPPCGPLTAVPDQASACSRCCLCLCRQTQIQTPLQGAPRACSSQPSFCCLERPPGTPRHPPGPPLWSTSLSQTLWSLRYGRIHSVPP

Vd (Rattus norvegicus [1]): 1 L/kg
t1/2 (Rattus norvegicus [2]): 24 min
Ki [3]: 12 nM
BPR (Rattus norvegicus [4]): 2.29
bioavailability [5]: 11%
Ki [6]: 55 nM
IC50 [7]: 45 nM
SMILES: COc1cc(OC(C)C)cc(S(=O)(=O)c2ccc3c(c2)O[C@H]2CNCC[C@@H]32)c1.Cl (single isomer, unassigned; enantiomer 2)
